Entries after “also recorded” stand apart in the source; their conditions may differ.

The test system of data set [1] is MCF7 tumors. The data set is described as follows: Antitumor efficacy in xenograft model of SCID-CB17 mice implanted with MCF7 cells. Format: in vivo. Conditions: per os, qd 5 weeks. Here is the method:
Antitumor efficacy of anticancer compounds in a xenograft model of SCID-CB17 mice implanted with MCF7 cells, and assessment of the substrates phosphorylation.
MCF7 cells are amplified in vitro in complete medium prior implantation. 24h prior cells injection, the mice are implanted with an estrogen pellet (Innovative Research of America at 0.18 mg/pellet).
On the day of injection, cells are harvested, counted thanks to a trypan blue viability dye (acceptability cut-off ≥80% viability), and resuspended in 50:50 PBS:Matrigel at the appropriate concentration. The cells are then injected subcutaneously in the right flank at 5.10^6 cells/mouse in 200 μL PBS:Matrigel within 30 minutes after harvesting, in 120 mice. […]
In order to assess the effectiveness of the compounds on tumorigenesis, tumor volume are measured twice per week for 8 weeks and mice are weighed once per week for 8 weeks.
The sizes of the primary tumors are measured using calipers and the tumor volume (TV) is extrapolated to a sphere using the formula TV=4/3π×r3, by calculating the mean radius from the two measurements. […]

Data set [2] in a line: Plasma and brain concentration after dosing (blood brain barrier crossing), Table A. Format: in vivo. To be noted: for Concentration: dose 25 mg/kg, administered orally. From the text: The present disclosure also encompasses the advantageous therapeutic use of a quinazoline carboxamide azetidine compound, preferably of 4-[(S)-2-Azetidin-1-yl-1-(4-chloro-3-trifluoromethyl-phenyl)-ethylamino]-quinazoline-8-carboxylic acid amide (M2698) or a pharmaceutically acceptable polymorph, enantiomer, stereoisomer, salt, solvate or tautomer thereof, for treating a metastasized cancer, e.g., a cancer that has spread to the brain, a bone, a lung, the liver, or the central nervous system.

The conditions of data set [3]: Machl et al., 2016; cited from earlier work.
The test system of data set [4] is ER+ and HER2+breast cancer. Conditions: patients, cited from earlier work.

Take `CCNCCc1ccc(CN(CC)c2cc(OC)ccc2[C@@H]2CCc3cc(O)ccc3C2)cc1` [Elacestrant, (R)-6-(2-(ethyl(4-(2-(ethylamino)ethyl)benzyl)amino)-4-methoxyphenyl)-5,6,7,8-tetrahydronaphthalen-2-ol, reference compound]: the “MCF7 tumor growth (tumor volume)” value in data set [1] (Elacestrant 50 mg/kg/day) is recorded as “weakly inhibited”.
With `NC(=O)c1cccc2c(N[C@H](CN3CCC3)c3ccc(Cl)c(C(F)(F)F)c3)ncnc12` [M2698, 4-[(S)-2-Azetidin-1-yl-1-(4-chloro-3-trifluoromethyl-phenyl)-ethylamino]-quinazoline-8-carboxylic acid amide], the Concentration in data set [2] (Brain) worked out at 4000 ng/mL; in data set [2] (Plasma) it was 1600 ng/mL. Further, in data set [2] (administered orally at 25 mg/kg of body weight), the “Ability to cross the blood brain barrier” value is “able to cross the blood brain barrier”. For the same compound, the “MCF7 tumor growth (tumor volume)” value in data set [1] (M2698 20 mg/kg/day, 20 mg/kg/day) is listed as “strong antitumor efficacy; also recorded: strongly inhibited tumor growth”. For the same compound, the “Crosses the blood-brain barrier” value in data set [3] is on record as “crosses the blood-brain barrier”. In data set [4] (monotherapy and combined with trastuzumab or tamoxifen), the Tolerability result is on record as “well tolerated”. Further, in data set [4] (monotherapy), the Efficacy of monotherapy entry is “modest”.

The values above are taken from US20260053799A1, “COMPOUNDS FOR TREATING CANCER” (EVEXTA BIO, priority 2022, published 2026).
